From ChEMBL document CHEMBL1201862, “PubChem BioAssay data set” (2004) come the findings set out here.

SMILES strings stand for the structures.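 Cells were grown in 96-well plates and exposed to each compound for 48 hours at five concentrations; endpoints were interpolated linearly between bracketing concentrations, or set to the highest concentration if not reached. The concentration for 50% growth inhibition is given as GI50.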 Activity calls are given as the source filed them. Cut-off read from the data, not from the text of the source: active = GI50 up to about 1.1 µM and inactive = higher. Where only a bound is given, the exact number is not on record here.

Some test systems named below: EKVX; DU-145; OVCAR-4; MOLT-4; NCI-H522; KM12; 786-0; HCC 2998; TK-10; A549; SR; IGROV-1; OVCAR-3; SK-MEL-28; RXF 393; COLO 205; MDA-N; U-251; CCRF-CEM; UO-31.
Test in all cases: inhibition of tumour cell growth, NCI panel, 48 h

Take `CN(C)CCCSc1nc2c(c(=N)n1-c1ccccc1)c(=S)n(-c1ccccc1)c(=S)n2-c1ccccc1`: the GI50 in the test with EKVX was 1.91 µM (inactive); with DU-145 it was 1.67 µM (inactive); in the test with OVCAR-4, 1.79 µM (inactive); in the test on MOLT-4 it was 0.789 µM (active); in the test on NCI-H522, 1.69 µM (inactive); in the test on KM12 it was 1.83 µM (inactive). The GI50 with 786-0 was 1.27 µM (inactive); in the test on HCC 2998, 1.45 µM (inactive); in the test on TK-10, 1.71 µM (inactive); with A549, 1.95 µM (inactive); with SR, 0.237 µM (active); in the test on IGROV-1 it was 1.83 µM (inactive). Moreover, the GI50 in the test on OVCAR-3 was 1.75 µM (inactive); in the test with SK-MEL-28, 2.04 µM (inactive); with RXF 393, 1.57 µM (inactive); with COLO 205 it was 1.9 µM (inactive); with MDA-N it was 1.71 µM (inactive); with U-251 it was 1.75 µM (inactive). The GI50 in the test with CCRF-CEM was 0.43 µM (active).
For `CC1(C)N=C(N)N=C(N)N1c1ccc(CCCCc2ccc(Cl)cc2Cl)cc1`, the GI50 with EKVX was 15.1 µM (inactive); in the test with DU-145 it was 1.92 µM (inactive); with OVCAR-4, 0.542 µM (active); with MOLT-4, 0.861 µM (active); in the test on NCI-H522, 0.433 µM (active); in the test with KM12, 0.63 µM (active). In addition, the GI50 in the test on 786-0 is 0.5 µM (active); in the test on HCC 2998 it was 0.451 µM (active); with TK-10, 3.13 µM (inactive); with A549, 0.335 µM (active); with SR it was 0.735 µM (active); with IGROV-1, 0.451 µM (active). In addition, the GI50 in the test on OVCAR-3 was 0.431 µM (active); with SK-MEL-28, 2.88 µM (inactive); with UO-31 it was 21.2 µM (inactive); in the test on RXF 393 it was 0.891 µM (active); in the test with COLO 205, 0.927 µM (active); in the test with MDA-N it was 0.982 µM (active). Further, the GI50 in the test on U-251 was 0.245 µM (active); with CCRF-CEM it was 0.736 µM (active).
Regarding `O=C1/C(=C\c2cccc(Oc3ccccc3)c2)SC(c2ccccc2)N1c1ccc(Cl)cc1` (configuration not stated), the GI50 with EKVX is 80.7 µM (inactive); with DU-145, 65.8 µM (inactive); with OVCAR-4, 17.4 µM (inactive); in the test with MOLT-4 it was 20.4 µM (inactive); with NCI-H522, 10.2 µM (inactive); with KM12, 12.6 µM (inactive). Besides, the GI50 in the test on 786-0 was 52.4 µM (inactive); with HCC 2998, 87.5 µM (inactive); in the test on TK-10, > 64.9 µM (inactive); in the test on A549, > 40.6 µM (inactive); in the test on SR, 3.91 µM (inactive); with OVCAR-3, 41.4 µM (inactive). For the same molecule, the GI50 is 64.9 µM (inactive) in the test with SK-MEL-28; 16 µM (inactive) with UO-31; 19.5 µM (inactive) with RXF 393; 11.2 µM (inactive) in the test on COLO 205; 4.79 µM (inactive) with MDA-N; 50.5 µM (inactive) in the test on U-251. For the same molecule, in the test on CCRF-CEM, the GI50 is 5.89 µM (inactive).
For the molecule `O=C(Nc1ccc(Cl)c(Cl)c1)N1N=C2c3ccccc3CCC2C1c1ccc(Cl)cc1` (configuration not stated), the GI50 in the test on EKVX, with DU-145, in the test with OVCAR-4, in the test on MOLT-4, in the test with NCI-H522 and in the test with KM12 was > 100 µM (inactive) each time. The GI50 with 786-0 is > 100 µM (inactive); in the test with HCC 2998, > 100 µM (inactive); in the test on TK-10 it was > 100 µM (inactive); in the test with A549, > 100 µM (inactive); in the test with SR it was > 100 µM (inactive); in the test with IGROV-1, 3.01 µM (inactive). The GI50 in the test on OVCAR-3, with SK-MEL-28, in the test on UO-31, in the test with RXF 393, in the test on COLO 205 and in the test with MDA-N was > 100 µM (inactive) in each case. The GI50 with U-251 and in the test on CCRF-CEM was > 100 µM (inactive) throughout.
Consider `CC1=NN(c2nc(N)nc(CCl)n2)C(C)(C)C1`, for which the GI50 in the test on EKVX was 12.9 µM (inactive); with DU-145 it was 35.1 µM (inactive); with OVCAR-4 it was 8.63 µM (inactive); in the test with MOLT-4, 19.5 µM (inactive); in the test with NCI-H522, 1.39 µM (inactive); in the test with KM12, 19.3 µM (inactive). Moreover, the GI50 in the test with 786-0 is 5.68 µM (inactive); in the test with HCC 2998, 27.1 µM (inactive); in the test on TK-10, > 71.6 µM (inactive); with A549, 42.6 µM (inactive); in the test with SR it was 15.8 µM (inactive); with IGROV-1 it was 4.41 µM (inactive). For the same molecule, the GI50 in the test on OVCAR-3 was 14.1 µM (inactive); in the test on SK-MEL-28, 34.1 µM (inactive); in the test on UO-31, 9.02 µM (inactive); in the test on RXF 393, > 56.8 µM (inactive); in the test with COLO 205, 22.9 µM (inactive); in the test with MDA-N, 31.5 µM (inactive). Further, the values for the GI50 in the test on U-251 and in the test with CCRF-CEM were 25.4 µM (inactive) and 8.15 µM (inactive), respectively.
On to `CCOC(=O)/C(=C\NC(=S)Nc1ccc(Cl)c(Cl)c1)C(=O)c1ccccc1`, for which the GI50 in the test with EKVX is > 100 µM (inactive); in the test on DU-145 it was > 100 µM (inactive); with OVCAR-4 it was 41.5 µM (inactive); in the test with MOLT-4 it was 19 µM (inactive); with NCI-H522, 6.3 µM (inactive); with KM12 it was 26.5 µM (inactive). The GI50 in the test on 786-0 is 58.6 µM (inactive); in the test on HCC 2998, 17.3 µM (inactive); with A549, 43.1 µM (inactive); in the test on SR, 20.4 µM (inactive); in the test with IGROV-1, 33 µM (inactive); with SK-MEL-28, 53.2 µM (inactive). Moreover, the GI50 is 1.52 µM (inactive) in the test on UO-31; 21.6 µM (inactive) with RXF 393; 46 µM (inactive) in the test with COLO 205; 27.2 µM (inactive) with MDA-N; 37.2 µM (inactive) in the test on U-251; 31.1 µM (inactive) with CCRF-CEM.
For `CCOC(=O)Nc1cc2c(c(N)n1)N=C(c1ccc(OC)cc1)CN2`, the GI50 in the test on EKVX was 0.00104 µM (active); with DU-145 it was 0.000407 µM (active); in the test on OVCAR-4, 0.757 µM (active); with MOLT-4, < 0.0001 µM (active); in the test with NCI-H522 it was 0.00277 µM (active); in the test on KM12 it was 0.000446 µM (active). Besides, the GI50 with 786-0 is 0.00363 µM (active); with HCC 2998, 0.000925 µM (active); in the test with TK-10, 0.361 µM (active); in the test with A549, 0.00258 µM (active); with SR, < 0.0001 µM (active); in the test on OVCAR-3 it was 0.00044 µM (active). In addition, the GI50 was 0.0057 µM (active) in the test on SK-MEL-28; 0.206 µM (active) in the test on UO-31; 0.0112 µM (active) with RXF 393; 0.00986 µM (active) in the test on COLO 205; < 0.0001 µM (active) in the test with MDA-N; < 0.0001 µM (active) in the test on U-251. The GI50 in the test with CCRF-CEM was 0.0016 µM (active).
As for `Cn1nc2c(c1N)Cc1c(nn(C)c1N)-c1ccccc1-2`, the GI50 with EKVX, in the test with DU-145, with OVCAR-4, in the test with MOLT-4, in the test with NCI-H522 and in the test on KM12 was > 100 µM (inactive) throughout. Moreover, the GI50 in the test with 786-0, in the test on HCC 2998, in the test on TK-10, in the test on A549, in the test with SR and in the test on IGROV-1 was > 100 µM (inactive) in each case. Also, the GI50 in the test with OVCAR-3, with SK-MEL-28, in the test with UO-31, with RXF 393, with COLO 205 and in the test on MDA-N was > 100 µM (inactive) throughout. Further, the GI50 in the test with U-251 and in the test with CCRF-CEM was > 100 µM (inactive) throughout.
On to `CC(C)C/N=C(\N)N=C(N)N`, for which the GI50 in the test with EKVX, in the test on DU-145, in the test with OVCAR-4, in the test on MOLT-4, in the test with NCI-H522 and in the test with KM12 was > 100 µM (inactive) throughout. Moreover, the GI50 in the test with 786-0, in the test with HCC 2998, in the test with TK-10, with A549, in the test on SR and in the test with IGROV-1 was > 100 µM (inactive) in each case. The GI50 in the test on OVCAR-3, in the test with SK-MEL-28, in the test on UO-31, in the test on RXF 393, with COLO 205 and with MDA-N was > 100 µM (inactive) throughout. Besides, the GI50 with U-251 is > 100 µM (inactive).
Regarding `CC1CC(OP(=O)(OCc2ccccc2)OCc2ccccc2)[C@@H](OCc2ccccc2)C(OCc2ccccc2)C1OCc1ccccc1` (some centres not stated), the GI50 in the test on EKVX was 34.1 µM (inactive); in the test with DU-145, > 100 µM (inactive); with OVCAR-4, > 100 µM (inactive); in the test with MOLT-4 it was 11.6 µM (inactive); with NCI-H522, 81.8 µM (inactive); in the test with 786-0, > 100 µM (inactive). Besides, the GI50 in the test on HCC 2998 is > 100 µM (inactive); in the test on TK-10, 22.2 µM (inactive); with A549 it was 24.7 µM (inactive); in the test on SR it was > 100 µM (inactive); in the test with IGROV-1, 64.7 µM (inactive); in the test with SK-MEL-28 it was > 100 µM (inactive). Moreover, the GI50 was 15.5 µM (inactive) with UO-31; 0.0555 µM (active) in the test on RXF 393; > 100 µM (inactive) in the test on COLO 205; > 100 µM (inactive) in the test with MDA-N; 20.1 µM (inactive) in the test on U-251; > 100 µM (inactive) with CCRF-CEM.
